In patent US20220233523A1, “ANTIBIOTIC POTENTIATION FOR NONTUBERCULOUS MYCOBACTERIAL DISEASE” (priority 2019, published 2022):
“And” between values parts separate entries of the source, which are not always exact repeats. Identical values can stand only once. Marks after values point to notes of the source that are not given here.

What was measured:
MAH104 biofilms = assay type: cell-based, Mycobacterium avium subsp hominissuis 104 (MAH104); conditions: for lower capacity of biofilms to use the substrate compared with planktonic cultures: O.D.590 nm, biofilm vs planktonic; for metabolized by biofilm cultures: Biolog PM1/PM2A plates; for Biofilm (metabolite used): Biolog PM1/PM2A substrates, 7 days at 37° C., end-point assay
Description: (§1) Metabolic phenotype study was performed with planktonic and biofilm cultures using the 96-well plates PM1 and PM2A (BIOLOG™, Hayward, Calif.). The assays with planktonic cells and biofilms were made at the same time. Each plate contains carbon substrates and one negative control well, in which the bacteria is tested without any substrate. The tests with planktonic and biofilm cultures were performed at the same time and the culture inoculum have the same number of passages. […] The experiments were made as an end-point assay.
The cultures of biofilms were established for 7 days in regular polystyrene 96 well plates, not in PM Biolog plates, as described above with a minor difference. […] (total of 14 days of biofilm incubated at 37° C.). To obtain spectrophotometric measurements from biofilm cultures (O.D.590 nm), the plate was centrifuged for 20 minutes at 3500 rpm at 20° C., which reduce bacteria interference with the readings, and biofilm supernatant was transferred to a new 96 well plates for O.D.590 nm measurement.
(§2) Experiments were performed three times as an end-point assay. If planktonic and/or biofilm cultures were able to metabolize a specific metabolite substrate, electrons from NADH reduce the Redox dye in an irreversible reaction that generates a purple color in the PM plate wells. The signal (+) and (−) indicates, respectively, whether a purple color was produced or not. Abiotic reductions of the Redox dye were assessed through adding bacteria-free GN/GP-IF-0a fluid in the wells. Negative control corresponds to the wells without any metabolic substrate.

[1] = tested on: MAH (strain 104) in established biofilms; assay: Treatment of established MAH biofilms with antibiotics and metabolites (CFU); assay type: cell-based, Mycobacterium avium subsp hominissuis 104 (MAH104); conditions: for numbers of bacteria in biofilms / CFU/ml at 14 days: established biofilms; for numbers of bacteria in biofilms: antibiotic alone or co-treatment; for CFU/ml at 14 days: clarithromycin 16 μg/ml, amikacin 4 μg/ml, 0.05% propionic or butyric acid, 0.2% glycerol, none 4.2 +/− 0.5 × 10^8
Description: To assess the antibiotic tolerance of MAH biofilms to amikacin (4 μg/ml) and clarithromycin (16 μg/ml), biofilms were formed for 14 days as described herein. […] As a negative control, biofilms were incubated only with non-supplemented 7H9 without any antibiotics. […] Subsequently, 100 μl of 0.02% of Triton X-100 (final concentration 0.01%) was added to the established biofilms to mix, dilute and perform CFU analysis with the entire population of biofilms (attached and unattached).
Mycobacteria biofilms were first established and then treated or not treated with antibiotics. In parallel, biofilms were also co-treated with antibiotics and the targeted metabolites.

[2] = tested on: intracellular MAH 104 in THP-1 macrophages; assay: Treatment of MAH inside human THP-1 macrophages with antibiotics and metabolites (CFU); assay type: cell-based, Mycobacterium avium subsp hominissuis 104 (MAH104); conditions: for CFU/ml of macrophage lysate, 2 h: 2 h (baseline); for CFU/ml of macrophage lysate, 4 days: clarithromycin 16 μg/ml, amikacin 4 μg/ml, none 8.2 +/− 0.3 × 10^5
Description: Human THP-1 cell line (TIB-202) (American Type Culture Collection, Manassas, Va.) was cultivated in RPMI-1640 medium with 10% of heat-inactivated fetal bovine serum (FBS, GEMINI B10-PRODUCTS, Sacramento, Calif.), at 37° C. with 5% CO2. The THP-1 cells were maintained in 75 cm^2 tissue culture flasks. The differentiation of THP-1 monocytes into macrophages with PMA (phorbol 12-myristate 13-acetate) (SIGMA ALDRICH) and intracellular antibiotic killing assays were performed as previously described (Rojony et al., Clinical proteomics 2019; 16:39). […] As a negative control, differentiated THP-1 cells were incubated without any antibiotics and with no metabolites. THP-1 cells were replenished with new media containing antibiotics, or no antibiotic, every other day. Cells were lysed at 2 h (baseline) and day 4 and subsequently the number of viable bacteria was determined by CFU counting on 7H10 agar plates.

MAH 3388 biofilm = assay: Amikacin with short-chain fatty acids on biofilm of lung isolate MAH 3388; assay type: cell-based; conditions: amikacin concentration: 4 mg/ml; untreated 9.4 +/− 0.2 × 10^7
Description: As a negative control, biofilms were incubated only with non-supplemented 7H9 without any antibiotics. […] Subsequently, 100 μl of 0.02% of Triton X-100 (final concentration 0.01%) was added to the established biofilms to mix, dilute and perform CFU analysis with the entire population of biofilms (attached and unattached).
Biofilms were established from an MAH strain isolated from the lungs of a patient (MAH 3388).

MAH 3393 biofilm = assay: Amikacin with short-chain fatty acids on biofilm of lung isolate MAH 3393; assay type: cell-based; conditions: amikacin concentration: 4 mg/ml; untreated 1.0 +/− 0.8 × 10^8
sessile MAH104 cells = assay: Growth and biofilm formation of pre-attached (sessile) cells in nutrient-limited media; assay type: cell-based, Mycobacterium avium subsp hominissuis 104 (MAH104); conditions: 0.05% fatty acids in non-supplemented 7H9, 7 days; blank 0.091±0.007
Description: (§3) Assays with biofilms incubated with propionic acid, butyric acid, and glycerol were performed to test whether these metabolites affect the formation of biofilms. All the experiments were made in non-supplemented 7H9. The effect of these metabolites was evaluated during biofilm formation, in pre-established biofilms and in M. avium cells pre-attached to polystyrene. To evaluate the effect of targeted metabolites during biofilm formation, mycobacteria suspensions were prepared and inoculated in 96 wells polystyrene plates, as already described, and biofilms were formed in the presence or not of the short-chain fatty acids at different concentrations (1%, 0.5%, 0.1%, 0.05% and 0.01%). For glycerol, only 0.2% was used. The biofilms were formed in 7H9 media at 37° C. for 7 days. For pre-established biofilms, MAH104 was again inoculated in 96 wells plates and biofilms were formed as described herein. […] It was also evaluated whether these metabolites could promote the growth of MAH104 cells present in biofilms through the measurement of […] every 24 hours. Finally, mycobacteria suspension with low density made in 7H9 broth (containing 1×10^6 bacteria/ml) were seeded in 96 wells polystyrene plates and incubated for 7 days at 37° C. […] The growth of pre-attached bacterial cells was followed every 24 hours through O.D.595 nm. The biofilm formation was evaluated by crystal violet.
Low mycobacterial cells density (10^6/ml) resuspended in non-supplemented 7H9 media were inoculated in 96-well plates and incubated for 7 days at 37° C. to allow the bacteria to attach into polystyrene. The supernatant was discarded to remove planktonic cells and pre-attached bacterium was incubated for 7 days in nutrient-limited media (non-supplemented 7H9). […] The growth of sessile mycobacteria was followed by O.D.595 nm measurement and biofilm formation was determined through crystal violet (O.D.570 nm), since the multiplication of bacteria cells is linked with the formation of biofilms. No growth was observed when sessile MAH104 cells were cultivated in non-supplemented 7H9 broth. […] It is also important to highlight that the O.D.570 nm value for sessile MAH104 forms incubated with non-supplemented 7H9 (O.D.570 nm=0.11±0.039) had no significant difference in comparison with the blank (O.D.570 nm=0.091±0.007) (P=0.37), showing no biofilm formation. […] FIG. 3A-D.

[3] = tested on: M. avium 104 static biofilms; assay: Static biofilm formation in the presence of metabolites (crystal violet); assay type: cell-based, Mycobacterium avium subsp hominissuis 104 (MAH104); conditions: 1% and 0.5%, 7H9, 7 days at 37° C., crystal violet
Description: Static biofilms were used in the present study as described previously (Rose S J, Bermudez L E., Infection and Immunity 2014; 82:405-12). Briefly, mycobacteria were taken from 7H10 agar plates and resuspended in deionized water (10^9 of colony forming units/ml; CFU/ml). The bacterial suspension was then washed 3 times with deionized water to remove any remaining of 7H10 media (3500 rpm for 20 minutes at 20° C.). After washing, the MAH104 were resuspended in 7H9 medium without any carbon sources (OADC, glycerol, tween 20 and tween 80) (non-supplemented 7H9) and suspensions were left alone to allow clumped bacteria to settle. The top half of the suspension was transferred to new tube and adjusted to 1×10^8 CFU/ml, using visual turbidity and optical density. Suspensions were inoculated in 96-well polystyrene plates (BD, Franklin Lakes, N.J.) (100 μl for each well [or 10^7 bacteria per well]) and biofilms were formed at 37° C. for 7 days or for 14 days when indicated. […] The raw O.D. at 570 nm values were discounted from O.D. 570 nm average of blank wells (wells with only 7H9 media).
as §3
The next step was to evaluate the capacity of tested substrates to promote the growth of mycobacteria cells that are present in biofilms. […] MAH 104 cells in the presence of non-supplemented 7H9 were used as a negative control. […]

[4] = tested on: planktonic MAH104 cultures; assay type: cell-based, Mycobacterium avium subsp hominissuis 104 (MAH104); conditions: for Planktonic (metabolite used): Biolog PM1/PM2A plates, 7 days at 37° C., end-point assay
Description: as §1
To prepare the inoculum of planktonic cells for PM plates, MAH104 was cultivated in 7H9 medium with 10% OADC and 0.05% of tween20. After the cells reached a mid-logarithmic phase (O.D. at 595 nm=0.3 to 0.6), the cultures were harvested and washed three times with deionized water (centrifugation conditions; 3500 rpm for 20 minutes at 20° C.) and incubated in water for 24 hours at 25° C. as a starvation step. […] A volume of 100 μl of this final bacteria suspension was inoculated into the wells of PM1 and PM2A plates. These plates were incubated for 7 days at 37° C. and after the incubation the O.D. at 590 nm of the plates were measured.
as §2

[5] = cited from earlier work

## CC(=O)O [Acetic Acid]
MAH104 biofilms
  lower capacity of biofilms to use the substrate compared with planktonic cultures: 2.55 fold

## CC(=O)CC(=O)O [Acetoacetic acid]
MAH104 biofilms
  metabolized by biofilm cultures: unable to metabolize

## NCC[C@H](O)C(=O)N[C@@H]1C[C@H](N)[C@@H](O[C@H]2O[C@H](CN)[C@@H](O)[C@H](O)[C@H]2O)[C@H](O)[C@H]1O[C@H]1O[C@H](CO)[C@@H](O)[C@H](N)[C@H]1O [Amikacin, reference compound]
[1]
  numbers of bacteria in biofilms: 5.8±0.5×10^7
  CFU/ml at 14 days: 5.8 +/− 0.5 × 10^7*(1) CFU/ml
[2]
  CFU/ml of macrophage lysate, 2 h: 4.5 +/− 0.4 × 10^5 CFU/ml
  CFU/ml of macrophage lysate, 4 days: 4.8±0.5×10^4 CFU/ml and 4.8 +/− 0.5 × 10^4* (1) CFU/ml
MAH 3388 biofilm
  CFU/mL, MAH 3388: 5.4 +/− 0.9 × 10^7*(1) CFU/mL
MAH 3393 biofilm
  CFU/mL, MAH 3393: 5.2 +/− 0.6 × 10^7*(1) CFU/mL

## CCCCCC(=O)O [Caproic acid]
MAH104 biofilms
  lower capacity of biofilms to use the substrate compared with planktonic cultures: 4.27 fold
Sessile MAH104 cells
  O.D.570 nm of sessile MAH104 (crystal violet, biofilm formation): 0.177±0.017
[3]
  biofilm formation with 1% and 0.5% of fatty acid: significant decrease
[1]; established M. avium 104 biofilms, 72 hours, FIG. 4A-D
  killing capacity of clarithromycin: increase
[1]
  CFU/ml at 14 days: 6.4 +/− 0.2 × 10^6*(1) CFU/ml
[2]
  CFU/ml of macrophage lysate, 2 h: 3.1 +/− 0.4 × 10^5 CFU/ml
  CFU/ml of macrophage lysate, 4 days: 5.3 +/− 0.4 × 10^5* (1) CFU/ml

## CC[C@H]1OC(=O)[C@H](C)[C@@H](O[C@H]2C[C@@](C)(OC)[C@@H](O)[C@H](C)O2)[C@H](C)[C@@H](O[C@@H]2O[C@H](C)C[C@H](N(C)C)[C@H]2O)[C@](C)(OC)C[C@@H](C)C(=O)[C@H](C)[C@@H](O)[C@]1(C)O [Clarithromycin, reference compound]
[1]
  numbers of bacteria in biofilms: 8.9±0.8×10^7
  CFU/ml at 14 days: 8.9 +/− 0.8 × 10^7*(1) CFU/ml
[2]
  CFU/ml of macrophage lysate, 2 h: 4.5 +/− 0.4 × 10^5 CFU/ml
  CFU/ml of macrophage lysate, 4 days: 3.9±0.3×10^4 CFU/ml and 3.9 +/− 0.3 × 10^4* (1) CFU/ml

## COC(=O)C(C)=O [Methyl Pyruvate]
MAH104 biofilms
  lower capacity of biofilms to use the substrate compared with planktonic cultures: 1.8 fold

## CC(=O)C(=O)O [Pyruvic acid]
MAH104 biofilms
  lower capacity of biofilms to use the substrate compared with planktonic cultures: 2.21 fold

## O=C(O)CCCCCCCCC(=O)O [Sebacic acid]
[4]; Biolog plate, end-point
  planktonic O.D.590 nm: 0.210±0.069
MAH104 biofilms; Biolog plate, end-point
  Biofilm O.D.590 nm: 0.411±0.059

## NC[C@H]1O[C@H](O[C@H]2[C@H](O)[C@@H](O[C@H]3O[C@H](CO)[C@@H](O)[C@H](N)[C@H]3O)[C@H](N)C[C@@H]2N)[C@H](N)C[C@@H]1O [tobramycin]
[5]; 10 minutes after delivery of 300 mg by nebulizer
  concentration in expectorated sputum (Mean): 1,237 μg/g of sputum
[5]; after 300 mg delivered by nebulizer
  concentration in the lung epithelial fluid (induced sputum): ~128 µg/g

## CCC(O)C(=O)O (stereo not drawn) [α-Hydroxy Butyric acid]
MAH104 biofilms
  metabolized by biofilm cultures: unable to metabolize

## CCC(=O)C(=O)O [α-Keto-Butyric acid]
MAH104 biofilms
  metabolized by biofilm cultures: unable to metabolize

## polysorbate 20 [Tween 20]
[4]
  Planktonic (metabolite used): +
MAH104 biofilms
  Biofilm (metabolite used): +
  lower capacity of biofilms to use the substrate compared with planktonic cultures: 5.4 fold

## polysorbate 40 [Tween 40]
[4]
  Planktonic (metabolite used): +
MAH104 biofilms
  Biofilm (metabolite used): +
  lower capacity of biofilms to use the substrate compared with planktonic cultures: 3.8 fold

## polysorbate 80 [Tween 80]
[4]
  Planktonic (metabolite used): +
MAH104 biofilms
  Biofilm (metabolite used): +
  lower capacity of biofilms to use the substrate compared with planktonic cultures: 3.45 fold
